Data on 4 molecules can be found in paper PMC6318325, “The conformational changes coupling ATP hydrolysis and translocation in a bacterial DnaB helicase” (Nature Communications, 2019).

For data set [1], the target named is T1, HpDnaB (DnaB) (Helicobacter pylori, UniProt O25916).
T1 construct: full length (488 residues), no tag stated (heparin and anion exchange purification); pACYC-duet1, E. coli BL21 Star (DE3); 13C-15N labelled for NMR; hexameric assembly, dodecamer named in anisotropy assay; nucleotide site at interface of two monomers
T1 sequence (O25916 1-488): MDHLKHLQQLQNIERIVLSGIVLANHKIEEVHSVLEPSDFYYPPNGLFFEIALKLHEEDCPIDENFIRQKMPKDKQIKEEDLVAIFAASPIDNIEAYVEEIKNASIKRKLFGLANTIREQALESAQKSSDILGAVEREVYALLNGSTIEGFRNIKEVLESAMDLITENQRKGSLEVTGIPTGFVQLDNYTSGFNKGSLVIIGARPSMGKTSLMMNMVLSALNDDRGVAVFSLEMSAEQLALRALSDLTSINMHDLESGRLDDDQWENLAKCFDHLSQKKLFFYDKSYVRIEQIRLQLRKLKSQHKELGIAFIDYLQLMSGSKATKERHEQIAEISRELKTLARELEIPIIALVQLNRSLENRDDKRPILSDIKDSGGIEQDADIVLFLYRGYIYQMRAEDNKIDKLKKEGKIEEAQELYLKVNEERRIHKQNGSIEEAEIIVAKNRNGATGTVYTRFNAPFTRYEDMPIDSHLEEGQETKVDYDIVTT
The data set can be described thus: solid-state […] CP and […] MAS NMR of sedimented complex. As to conditions: no DNA, NMR at 278 K, nucleotide-binding domain.

Data set [2] has as its target T1, HpDnaB (DnaB). Kind of data set: […] solid-state NMR, ATP turned over to ADP during sample preparation. It is filed as biochemical. As to conditions: 5 mM MgCl2, 5 mM ATP, pH 7.5, 130 mM NaCl, 4 °C, no DNA.
Data set [3] has as its target T2, HpDnaB replicative helicase (Helicobacter pylori, UniProt O25916 1-488).
T2 sequence: T1 sequence (O25916 1-488)
The data set can be described thus: fluorescence anisotropy; 0.5 mM AMP-PCP, 5 mM MgCl2; Hill fit; Supplementary Table 4 fit instead prints 47.43 +/- 2.648, h 0.7349 (column order inferred); Anisotropy: 20 mM Hepes pH 7.5, 5 mM MgCl2, 50 mM potassium acetate, 5% glycerol, 0.2 mg/ml BSA, 0.5 mM nucleotide, 1 nM DNA, 0-8 uM DnaB (dodecamer), temperature not stated; NMR: protein buffer 2.5 mM sodium phosphate pH 7.5, 130 mM NaCl, 278 K. As to conditions: protein: recombinant; chain copies: 12; label: 5'-FAM; single strand.

Data set [4] addresses T2, HpDnaB replicative helicase. The data set can be described thus: fluorescence anisotropy; 0.5 mM ATP, 5 mM MgCl2; Hill fit h 0.6509; Anisotropy: 20 mM Hepes pH 7.5, 5 mM MgCl2, 50 mM potassium acetate, 5% glycerol, 0.2 mg/ml BSA, 0.5 mM nucleotide, 1 nM DNA, 0-8 uM DnaB (dodecamer), temperature not stated; NMR: protein buffer 2.5 mM sodium phosphate pH 7.5, 130 mM NaCl, 278 K. As to conditions: protein: recombinant; chain copies: 12; label: 5'-FAM; single strand. Background: Polarisation of emitted light reports the rotation of a fluorescent probe.

The target is the same in data set [5]. Kind of data set: fluorescence anisotropy; 0.5 mM ADP:AlF4-, 5 mM MgCl2; Hill fit h 1.160; Anisotropy: 20 mM Hepes pH 7.5, 5 mM MgCl2, 50 mM potassium acetate, 5% glycerol, 0.2 mg/ml BSA, 0.5 mM nucleotide, 1 nM DNA, 0-8 uM DnaB (dodecamer), temperature not stated; NMR: protein buffer 2.5 mM sodium phosphate pH 7.5, 130 mM NaCl, 278 K. As to conditions: protein: recombinant; chain copies: 12; label: 5'-FAM; single strand.

For `Nc1ncnc2c1ncn2[C@@H]1O[C@H](COP(=O)(O)OP(=O)(O)O)[C@@H](O)[C@H]1O` [ADP], on HpDnaB (DnaB) [1] (5 mM MgCl2, 5 mM ADP, pH 7.5, 130 mM NaCl), the “solid-state 31P CP and 13C MAS NMR of sedimented complex” value was “The nucleotides are thus indeed bound to the protein”.

Take `Nc1ncnc2c1ncn2[C@@H]1O[C@H](COP(=O)(O)OP(=O)(O)CP(=O)(O)O)[C@@H](O)[C@H]1O` [AMP-PCP]: the “solid-state 31P CP and 13C MAS NMR of sedimented complex” value on HpDnaB (DnaB) [1] (5 mM MgCl2, pH 7.5, 130 mM NaCl, 15 mM nucleotide) is listed as “The nucleotides are thus indeed bound to the protein”.

Turning to `Nc1ncnc2c1ncn2[C@@H]1O[C@H](COP(=O)(O)OP(=O)(O)OP(=O)(O)O)[C@@H](O)[C@H]1O` [ATP], the “31P solid-state NMR, ATP turned over to ADP during sample preparation” value at HpDnaB (DnaB) [2] is “Addition of ATP to the apo form yields the ADP spectrum, implying that ATP is hydrolyzed”.

Regarding TTTTTTTTTTTTTTTTTTTT (ssDNA) [5'-FAM-(dT)20], the Kd in data set [3] is 58 ± 14 nM; in data set [4] it was 14 ± 3 nM; in data set [5], 0.83 ± 0.03 nM.

Usually Kd stands for the constant that tells how readily two partners part at equilibrium.
